From patent US9115145B2, “Tocotrienol derivatives and associated methods” (FIRST TECH INTERNATIONAL LIMITED, priority 2011, dated 2015)
Read-outs that look alike come from different tables or passages of the source.

Tests used:
[1] = system: +SA mammary epithelial cells; test: MTT assay of +SA cells (antiproliferative activity); type: cell-based, mouse; details: for IC50: 24 hours treatment, read-out: IC50 antiproliferative activity against +SA mammary epithelial cells; for antiproliferative activity against +SA mammary tumor cells (in words): described from FIG. 32 / text
Experimental: The antiproliferative activities of Compounds 3-44 against the highly metastatic malignant +SA mammary epithelial cells were evaluated by MTT assay. Materials for the assay were purchased from Sigma Chemical Company (St. Louis, Mo.) unless otherwise stated. The highly malignant +SA mouse mammary epithelial cell line was serially passaged at subconfluent cell density. The +SA mammary tumor cell line was derived from an adenocarcinoma that developed spontaneously in a BALB/c female mouse. +SA cells were maintained in serum-free defined medium consisting of Dulbecco's modified Eagle's medium (DMEM)/F12 containing 5 mg/mL bovine serum albumin (BSA), 10 […], 100 U/mL soybean trypsin inhibitor, 100 U/mL penicillin G, 0.1 mg/mL streptomycin, […], and 10 ng/mL epidermal growth factor. For subculturing, cells were rinsed twice with sterile Ca2+ and Mg2+-free phosphate buffered saline (PBS) and incubated in 0.05% trypsin containing 0.025% EDTA in PBS for 5 min at 37° C. The released cells were centrifuged, resuspended in fresh media and counted using hemocytometer. A stock solution of the compounds was prepared in DMSO. Once dissolved, this solution was added to a small volume of sterile 10% BSA in water and incubated overnight at 37° C. This solution conjugated to BSA was used to prepare various concentrations (0-40 μM) of tocotrienol analogs. DMSO was added to all treatment media such that the final DMSO concentration was the same in all treatment groups within a given experiment and was always less than 0.1%. For cytotoxic studies, cells were seeded at a density of 5×10^4 cells/well (+SA cells) or 1×10^5 cells/well (CL-S1 cells) (6 wells/group) in 24-well culture plates and allowed to grow in their respective control media. After 3 days incubation period (approximately 70% confluency), cells were divided equally into various treatment groups and exposed to their respective treatments for a 24 hours incubation period. Following the 24 hours treatment period, cell viability was measured using the MTT assay.
+SA Mammary epithelial cell viable number was determined by a 3-(4,5-dimethylthiazol-2yl)-2,5-diphenyl tetrazolium bromide (MTT) colorimetric assay. On the assay day, treatment medium was replaced with fresh control medium containing 0.42 mg/mL MTT, and the cells in 24-well plates were incubated at 37° C. for 4 hours. Afterward, the medium was removed, and the MTT crystals were dissolved in isopropyl alcohol (1 mL/well). The optical density of each sample was read at 570 nm on a microplate reader (SpectraCount, Packard BioScience Company), against a blank prepared from cell-free cultures. The number of cells/well was calculated against a standard curve prepared by plating various concentrations of cells, as determined by hemocytometer, at the start of each experiment.
Differences among the various treatment groups in +SA cell cytotoxic studies were determined by analysis of variance (ANOVA) followed by Dunnett's t-test. The difference of P<0.05 was considered to be statistically significant as compared with vehicle-treated controls unless separately described. Linear regression analysis of treatment effects on viable cell number in growth and cytotoxicity studies was used to determine the 50% growth inhibition concentration (IC50) for individual treatments.

[2] = system: MCF7 human breast cancer cell line; test: MTT assay of MCF7 cells; type: cell-based; details: Homo sapiens, media containing 1% fetal bovine serum
Experimental: (§1) MDA-MB-231 and MCF7 cells were plated at a density of 8×10^3 cells/well and 10^4 cells/well in 96-well culture plates, respectively. The compounds were fed in serum free media containing 5% and 1% fetal bovine serum for MDA-MB-231 and MCF7 cells, respectively.

[3] = system: MDA-MB-231 human breast cancer cell line; test: MTT assay of MDA-MB-231 cells; type: cell-based; details: Homo sapiens, media containing 5% fetal bovine serum
Experimental: as §1

[4] = system: MDA-MB-231 human breast cancer cells; test: Wound-healing assay (cell migration); type: cell-based
Experimental: The highly metastatic human breast cancer MDA-MB-231 cells were cultured in RPMI 1640 medium containing 10 mM HEPES, 4 mM L-glutamine, 10% fetal bovine serum, penicillin (100 IU/mL), and streptomycin (50 μg/mL), and grown in a 5% CO2 atmosphere at 37° C. Cells were plated onto sterile 24-well and allowed to recover for a confluent cell monolayer formed in each well (>95% confluence). Wounds were then inflicted to each cell monolayer using a sterile 200 μL pipette tip. Media were removed, cells monolayers were washed twice with PBS, and then fresh media containing test compounds were added to each well. Test compounds were prepared in DMSO at 5 μM concentration and added to the plates, each in triplicate using DMSO as negative control. The incubation was carried out for 24 h under serum-starved conditions, after which media was removed and cells were fixed and stained using a staining composition sold under the trade name Diff Quick (Dade Behring Diagnostics, Aguada, Puerto Rico). The stain comprised a fixative reagent containing 1.8 mg/L triarylmethane dye in methyl alcohol; a first solution of 1 g/L xanthene dye, buffer, and sodium azide (0.01%) as preservative; and a second solution of 1.25 g/L Thiazine dye mixture (0.625 g/L azure A and 0.625 g/L methylene blue) and buffer. The number of cells migrated on the scratched wound were counted under the microscope in three or more randomly selected fields (magnification: 400×). Final results are expressed as mean±SEM per 400× field. The wound-healing assay is a simple method for the study of directional cell migration in vitro.
Compounds were tested for their ability to inhibit the migration of the highly metastatic MDA-MB-231 human breast cancer cells in the wound-healing assay using the procedure described above. Compounds 6, 10, 12, 13, 24, 26, 27, and 29 inhibited the migration of more than 50% of the human breast cancer cells MDA-MB-231 in the wound healing assay at 5 μM dose. […] The antimigratory activity of tocotrienols may be enhanced by a terminal aromatic functionality. The presence of electron withdrawing group, such as nitro in Compound 29, may eliminate the antiproliferative activity yet retain the antimigratory activity of the compound. While the electron donating groups, such as OH and OMe found in Compounds 23 and 26, respectively, retained both antiproliferative and antimigratory activities.
Utilizing similar procedures follow-up testing was conducted on a variety of compounds using a range of compound concentrations. The results of follow-up antimigratory testing are shown in FIG. 35B and Table III below with IC50 values calculated using statistical software.

[5] = system: MCF 10A non-tumorigenic mammary epithelial cells; test: MTT assay of MCF10A cells; type: cell-based, human; details: for IC50: Homo sapiens
Experimental: MCF 10A (ATCC cat # CRL-10317) normal human non-tumorigenic mammary epithelial cells were maintained in serum-free defined medium consisting of Dulbecco's modified Eagle's medium (DMEM)/F12 containing 5% horse serum, 1% penicillin/streptomycin, 0.5 μg/mL hydrocortisone, 100 ng/mL cholera toxin, 10 μg/mL insulin, and 20 ng/mL epidermal growth factor (rhEGF). For subculturing, cells were rinsed twice with sterile Ca2+ and Mg2+-free phosphate buffered saline (PBS) and incubated in 0.25% trypsin containing 0.025% EDTA in PBS for 5 min at 37° C. The released cells were centrifuged, re-suspended in fresh media and counted using a hemocytometer. For testing, MCF 10A cells were plated at a density of 10×10^4 cells/well. A stock solution of the compounds was prepared in DMSO. DMSO was added to all treatment media such that the final DMSO concentration was the same in all treatment groups within a given experiment and was always less than 0.1%. The compounds were fed in serum free media. MCF10A mammary epithelial cell's viable number was determined by MTT colorimetric assay. […] IC50 values were calculated by non-linear regression using statistical software. The selectivity index indicated in the table represents the IC50 value for the MCF 10A cell line divided by the IC50 value for the +SA cell line.

**Q.** Which IC50 ([1]; Mus musculus, +SA cell) does the source give for `CC(C)=CCC/C(C)=C/CC/C(C)=C/CC[C@]1(C)CCc2c(CO)c(O)c(C)c(C)c2O1` [Compound 32, (R)-5-(hydroxymethyl)-2,7,8-trimethyl-2-((3E,7E)-4,8,12-trimethyltrideca-3,7,11-trienyl)chroman-6-ol] here?
**A.** 2600 nM

**Q.** For `CC(C)=CCC/C(C)=C/CC/C(C)=C/CC[C@]1(C)CCc2c3c(cc(C)c2O1)OCN(C)C3` [Compound 4, (R)-2,6,8-trimethyl-8-((3E,7E)-4,8,12-trimethyltrideca-3,7,11-trienyl)-1,2,3,8,9,10-hexahydrochromeno[5,6-e][1,3]oxazine], which IC50 ([1]; Mus musculus, +SA cell) is on record?
**A.** 1200 to 2200 nM

**Q.** What does the source list for `CC(C)=CCC/C(C)=C/CC/C(C)=C/CC[C@]1(C)CCc2c3c(c(C)c(C)c2O1)OCN(CC1CCNCC1)C3` [Compound 16, (R)-5,6,8-trimethyl-2-(piperidin-4-ylmethyl)-8-((3E,7E)-4,8,12-trimethyltrideca-3,7,11-trienyl)-1,2,3,8,9,10-hexahydrochromeno[5,6-e][1,3]oxazine]?
**A.** antiproliferative activity against +SA mammary tumor cells (in words) [1]: strong activity; IC50 [2]: > 20000 nM; IC50 [3]: 800 nM

**Q.** `CC(C)=CCC/C(C)=C/CC/C(C)=C/CC[C@]1(C)CCc2c3c(cc(C)c2O1)OCN(Cc1cccc([N+](=O)[O-])c1)C3` [Compound 29, (R)-6,8-dimethyl-2-(3-nitrobenzyl)-8-((3E,7E)-4,8,12-trimethyltrideca-3,7,11-trienyl)-1,2,3,8,9,10-hexahydrochromeno[5,6-e][1,3]oxazine] was tested. Which “antiproliferative activity against +SA mammary tumor cells (in words)” value (“antiproliferative activity” for short) [1] did it give?
**A.** inactive

**Q.** And the inhibition at 5 µM ([4]; Homo sapiens, MDA-MB-231, 5 μM dose, 24 h, wound-healing assay)?
**A.** > 50%

**Q.** Which “antiproliferative activity” value [1] does the source give for `CC(C)=CCC/C(C)=C/CC/C(C)=C/CC[C@]1(C)CCc2c3c(cc(C)c2O1)OCN(CCCCC(=O)O)C3` [Compound 20, 5-((R)-6,8-dimethyl-8-((3E,7E)-4,8,12-trimethyltrideca-3,7,11-trienyl)-9,10-dihydrochromeno[5,6-e][1,3]oxazin-2(1H,3H,8H)-yl)pentanoic acid] here?
**A.** strong activity but less so than the aforementioned compounds

**Q.** What does the source list for `COc1ccc(CCN2COc3c(C)c(C)c4c(c3C2)CC[C@@](C)(CC/C=C(\C)CC/C=C(\C)CCC=C(C)C)O4)cc1OC` [Compound 23, (R)-2-(3,4-dimethoxyphenethyl)-5,6,8-trimethyl-8-((3E,7E)-4,8,12-trimethyltrideca-3,7,11-trienyl)-1,2,3,8,9,10-hexahydrochromeno[5,6-e][1,3]oxazine]?
**A.** antiproliferative activity against +SA mammary tumor cells (in words) [1]: very high activity; IC50 [2]: > 20000 nM; IC50 [3]: > 50000 nM; IC50 ([5]; MCF-10A, MCF10A cells, Table II, non-linear regression, read-out: MCF10A (IC50)): 700 nM; IC50 ([5]; MCF 10A non-tumorigenic cells, Table I, read-out: IC50 MCF 10A): 700 nM; Selectivity index ([5]; IC50 for MCF 10A divided by IC50 for +SA cell line): 0.39

**Q.** With `CC(C)=CCC/C(C)=C/CC/C(C)=C/CC[C@]1(C)CCc2cc(O)c(CO)c(C)c2O1` [Compound 34, (R)-7-(hydroxymethyl)-2,8-dimethyl-2-((3E,7E)-4,8,12-trimethyltrideca-3,7,11-trienyl)chroman-6-ol] as the molecule, how does the IC50 ([1]; Mus musculus, +SA cell) read?
**A.** ≥ 6600 nM

**Q.** For `CC(C)=CCC/C(C)=C/CC/C(C)=C/CC[C@]1(C)CCc2c3c(c(C)c(C)c2O1)OCN(C)C3` [Compound 3, (R)-2,5,6,8-tetramethyl-8-((3E,7E)-4,8,12-trimethyltrideca-3,7,11-trienyl)-1,2,3,8,9,10-hexahydrochromeno[5,6-e][1,3]oxazine], which IC50 ([1]; Mus musculus, +SA cell) is on record?
**A.** 1200 to 2200 nM

**Q.** What does the source list for `CC(C)=CCC/C(C)=C/CC/C(C)=C/CC[C@]1(C)CCc2cc(O)cc(C)c2O1` [Compound 2, δ-tocotrienol, reference compound]?
**A.** IC50 [1]: 3000 nM; IC50 ([4]; MDA-MB-231, wound-healing assay, dose response, read-out: IC50 antimigratory activity): > 40000 nM

**Q.** How did the IC50 ([1]; Mus musculus, +SA cell) turn out when `CC(C)=CCC/C(C)=C/CC/C(C)=C/CC[C@]1(C)CCc2c(CO)c(O)cc(C)c2O1` [Compound 33, (R)-5-(hydroxymethyl)-2,8-dimethyl-2-((3E,7E)-4,8,12-trimethyltrideca-3,7,11-trienyl)chroman-6-ol] was run?
**A.** ≥ 6600 nM

**Q.** How did the “antiproliferative activity” value [1] turn out when `CC(C)=CCC/C(C)=C/CC/C(C)=C/CC[C@]1(C)CCc2c3c(c(C)c(C)c2O1)OCN(Cc1cccc([N+](=O)[O-])c1)C3` [Compound 28, (R)-5,6,8-trimethyl-2-(3-nitrobenzyl)-8-((3E,7E)-4,8,12-trimethyltrideca-3,7,11-trienyl)-1,2,3,8,9,10-hexahydrochromeno[5,6-e][1,3]oxazine] was run?
**A.** significant activity but less so than Compounds 20

**Q.** How did the “antiproliferative activity” value [1] turn out when `CCOC(CCN1COc2c(C)c(C)c3c(c2C1)CC[C@@](C)(CC/C=C(\C)CC/C=C(\C)CCC=C(C)C)O3)OCC` [Compound 14, (R)-2-(3,3-diethoxypropyl)-5,6,8-trimethyl-8-((3E,7E)-4,8,12-trimethyltrideca-3,7,11-trienyl)-1,2,3,8,9,10-hexahydrochromeno[5,6-e][1,3]oxazine] was run?
**A.** significantly decreased activity
